Molecular target: T1, HDM2 (Homo sapiens, UniProt Q00987)
T1 construct: Thioredoxin (N); made in house; host or cells: E. coli strain BL21(DE3)Rosetta
Assay: HDM2 FRET assay (inhibition of binding of FITC labeled p53-pocket peptide to HDM2)
Details: for IC50: Table 6, read-out: FRET IC50; for inhibition at 1 µM: read-out: inh. at 1000 nM (FRET)
Procedure, shortened: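 Final: 0.5 nM His-HDM2, 3 nM FITC peptide, 0.25 nM Tb anti-His Ab; PBS, 0.01% BSA, 0.01% Tween-20; 0.1% DMSO.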

T1 sequence (Q00987 17-125): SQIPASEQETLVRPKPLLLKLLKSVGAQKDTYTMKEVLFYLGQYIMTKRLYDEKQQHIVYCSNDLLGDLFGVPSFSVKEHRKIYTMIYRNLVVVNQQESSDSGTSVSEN

SMILES | IC50 [nM] | inhibition at 1 µM [%]
Cc1cccc(-c2nc3nc(C(=O)O)nc(N[C@@H](C4CC4)C(F)(F)F)c3n2Cc2ccc(C(F)(F)F)cc2)c1 [Example 6.53, 6-{[(1S)-1-cyclopropyl-2,2,2-trifluoroethyl]amino}-8-(3-methylphenyl)-7-[4-(trifluoromethyl)benzyl]-7H-purine-2-carboxylic acid] | 419 | –
CC[C@H](Nc1nc(C(=O)O)nc2nc(-c3cc(C(C)C)ccn3)n(Cc3ccc(C(F)(F)F)cc3)c12)C1CCC1 [Example 6.54, 6-{[(1S)-1-cyclobutylpropyl]amino}-8-[4-(1-methylethyl)pyridin-2-yl]-7-[4-(trifluoromethyl)benzyl]-7H-purine-2-carboxylic acid] | 203 | –
CC[C@@H](Nc1nc(C(=O)O)nc2nc(-c3cc(C(C)C)ccn3)n(Cc3ccc(C(F)(F)F)cc3)c12)C1CCC1 [Example 6.55, 6-{[(1R)-1-cyclobutylpropyl]amino}-8-[4-(1-methylethyl)pyridin-2-yl]-7-[4-(trifluoromethyl)benzyl]-7H-purine-2-carboxylic acid] | 9.27 | –
COc1ccc(C)cc1-c1nc2nc(C(=O)O)nc(N[C@H](C)C3CC3(C)C)c2n1Cc1ccc(C(F)(F)F)cc1 (stereo partly drawn) [Example 6.56, 6-{[(1R)-1-(2,2-dimethylcyclopropyl)ethyl]amino}-8-(2-methoxy-5-methylphenyl)-7-[4-(trifluoromethyl)benzyl]-7H-purine-2-carboxylic acid] | 1410 | –
CC(C)c1ccnc(-c2nc3nc(C(=O)O)nc(N[C@@H](c4ccccc4)C4CCC4)c3n2Cc2ccc(C(F)(F)F)cc2)c1 [Example 6.57, 6-{[(R)-cyclobutyl(phenyl)methyl]amino}-8-[4-(1-methylethyl)pyridin-2-yl]-7-[4-(trifluoromethyl)benzyl]-7H-purine-2-carboxylic acid] | 1060 | –
CC(C)c1ccnc(-c2nc3nc(C(=O)O)nc(N[C@H](c4ccccc4)C4CCC4)c3n2Cc2ccc(C(F)(F)F)cc2)c1 [Example 6.58, 6-{[(S)-cyclobutyl(phenyl)methyl]amino}-8-[4-(1-methylethyl)pyridin-2-yl]-7-[4-(trifluoromethyl)benzyl]-7H-purine-2-carboxylic acid] | 49.2 | –
CCN(C)c1nc(C(=O)O)nc2nc(-c3cccc(C)c3)n(Cc3ccc(C(F)(F)F)cc3)c12 [Example 6.59, 6-[ethyl(methyl)amino]-8-(3-methylphenyl)-7-[4-(trifluoromethyl)benzyl]-7H-purine-2-carboxylic acid] | 1000 | –
CC[C@@H](C)Nc1nc(C(=O)O)nc2nc(-c3cccc(C)c3)n(Cc3ccc(C(F)(F)F)cc3)c12 [Example 6.60, 8-(3-methylphenyl)-6-{[(1R)-1-methylpropyl]amino}-7-[4-(trifluoromethyl)benzyl]-7H-purine-2-carboxylic acid] | 583 | –
CC[C@H](C)Nc1nc(C(=O)O)nc2nc(-c3cccc(C)c3)n(Cc3ccc(C(F)(F)F)cc3)c12 [Example 6.61, 8-(3-methylphenyl)-6-{[(1S)-1-methylpropyl]amino}-7-[4-(trifluoromethyl)benzyl]-7H-purine-2-carboxylic acid] | – | 41
Cc1cccc(-c2nc3nc(C(=O)O)nc(NC(C)CC(C)C)c3n2Cc2ccc(C(F)(F)F)cc2)c1 (stereo not shown) [Example 6.62, 6-[(1,3-dimethylbutyl)amino]-8-(3-methylphenyl)-7-[4-(trifluoromethyl)benzyl]-7H-purine-2-carboxylic acid] | – | 34
CCC(C)CNc1nc(C(=O)O)nc2nc(-c3cccc(C)c3)n(Cc3ccc(C(F)(F)F)cc3)c12 (stereo not shown) [Example 6.63, 6-[(2-methylbutyl)amino]-8-(3-methylphenyl)-7-[4-(trifluoromethyl)benzyl]-7H-purine-2-carboxylic acid] | 719 | –
CCCC(CCC)Nc1nc(C(=O)O)nc2nc(-c3cccc(C)c3)n(Cc3ccc(C(F)(F)F)cc3)c12 [Example 6.64, 8-(3-methylphenyl)-6-[(1-propylbutyl)amino]-7-[4-(trifluoromethyl)benzyl]-7H-purine-2-carboxylic acid] | 920 | –
Cc1cccc(-c2nc3nc(C(=O)O)nc(N(C)C4CCCC4)c3n2Cc2ccc(C(F)(F)F)cc2)c1 [Example 6.65, 6-[cyclopentyl(methyl)amino]-8-(3-methylphenyl)-7-[4-(trifluoromethyl)benzyl]-7H-purine-2-carboxylic acid] | – | 35
Cc1cccc(-c2nc3nc(C(=O)O)nc(N4Cc5ccccc5C4)c3n2Cc2ccc(C(F)(F)F)cc2)c1 [Example 6.66, 6-(1,3-dihydro-2H-isoindol-2-yl)-8-(3-methylphenyl)-7-[4-(trifluoromethyl)benzyl]-7H-purine-2-carboxylic acid] | – | 46
Cc1cccc(-c2nc3nc(C(=O)O)nc(N(C)Cc4ccccc4)c3n2Cc2ccc(C(F)(F)F)cc2)c1 [Example 6.67, 6-[benzyl(methyl)amino]-8-(3-methylphenyl)-7-[4-(trifluoromethyl)benzyl]-7H-purine-2-carboxylic acid] | – | 30
CCCCN(CCC)c1nc(C(=O)O)nc2nc(-c3cccc(C)c3)n(Cc3ccc(C(F)(F)F)cc3)c12 [Example 6.68, 6-[butyl(propyl)amino]-8-(3-methylphenyl)-7-[4-(trifluoromethyl)benzyl]-7H-purine-2-carboxylic acid] | 681 | –

SMILES | IC50 [nM] | inhibition at 1 µM [%]
CCCCN(CC)c1nc(C(=O)O)nc2nc(-c3cccc(C)c3)n(Cc3ccc(C(F)(F)F)cc3)c12 [Example 6.69, 6-[butyl(ethyl)amino]-8-(3-methylphenyl)-7-[4-(trifluoromethyl)benzyl]-7H-purine-2-carboxylic acid] | 621 | –
CCCN(CC)c1nc(C(=O)O)nc2nc(-c3cccc(C)c3)n(Cc3ccc(C(F)(F)F)cc3)c12 [Example 6.70, 6-[ethyl(propyl)amino]-8-(3-methylphenyl)-7-[4-(trifluoromethyl)benzyl]-7H-purine-2-carboxylic acid] | – | 39
Cc1cccc(-c2nc3nc(C(=O)O)nc(N(C)CC(C)C)c3n2Cc2ccc(C(F)(F)F)cc2)c1 [Example 6.71, 6-[methyl(2-methylpropyl)amino]-8-(3-methylphenyl)-7-[4-(trifluoromethyl)benzyl]-7H-purine-2-carboxylic acid] | 940 | –
Cc1cccc(-c2nc3nc(C(=O)O)nc(N(C)CC(C)C)c3n2Cc2ccc(C(F)(F)F)cc2)c1 [Example 6.72, 6-[methyl(2-methylpropyl)amino]-8-(3-methylphenyl)-7-[4-(trifluoromethyl)benzyl]-7H-purine-2-carboxylic acid] | – | 40
Cc1cccc(-c2nc3nc(C(=O)O)nc(NC(C)C(C)C)c3n2Cc2ccc(C(F)(F)F)cc2)c1 (stereo not shown) [Example 6.73, 6-[(1,2-dimethylpropyl)amino]-8-(3-methylphenyl)-7-[4-(trifluoromethyl)benzyl]-7H-purine-2-carboxylic acid] | 437 | –
Cc1cccc(-c2nc3nc(C(=O)O)nc(NC(C)C(C)(C)C)c3n2Cc2ccc(C(F)(F)F)cc2)c1 (stereo not shown) [Example 6.74, 8-(3-methylphenyl)-7-[4-(trifluoromethyl)benzyl]-6-[(1,2,2-trimethylpropyl)amino]-7H-purine-2-carboxylic acid] | 552 | –
Cc1cccc(-c2nc3nc(C(=O)O)nc(NCC4CCC4)c3n2Cc2ccc(C(F)(F)F)cc2)c1 [Example 6.75, 6-[(cyclobutylmethyl)amino]-8-(3-methylphenyl)-7-[4-(trifluoromethyl)benzyl]-7H-purine-2-carboxylic acid] | 167 | –
Cc1cccc(-c2nc3nc(C(=O)O)nc(N4CCCC4CC(C)C)c3n2Cc2ccc(C(F)(F)F)cc2)c1 (stereo not shown) [Example 6.76, 8-(3-methylphenyl)-6-[2-(2-methylpropyl)pyrrolidin-1-yl]-7-[4-(trifluoromethyl)benzyl]-7H-purine-2-carboxylic acid] | – | 32
Cc1cccc(-c2nc3nc(C(=O)O)nc(N(C)CCC(C)C)c3n2Cc2ccc(C(F)(F)F)cc2)c1 [Example 6.77, 6-[methyl(3-methylbutyl)amino]-8-(3-methylphenyl)-7-[4-(trifluoromethyl)benzyl]-7H-purine-2-carboxylic acid] | – | 36
CCC1CCCN1c1nc(C(=O)O)nc2nc(-c3cccc(C)c3)n(Cc3ccc(C(F)(F)F)cc3)c12 (stereo not shown) [Example 6.78, 6-(2-ethylpyrrolidin-1-yl)-8-(3-methylphenyl)-7-[4-(trifluoromethyl)benzyl]-7H-purine-2-carboxylic acid] | – | 33
CCCC(C)N(C)c1nc(C(=O)O)nc2nc(-c3cccc(C)c3)n(Cc3ccc(C(F)(F)F)cc3)c12 (stereo not shown) [Example 6.79, 6-[methyl(1-methylbutyl)amino]-8-(3-methylphenyl)-7-[4-(trifluoromethyl)benzyl]-7H-purine-2-carboxylic acid] | – | 43
Cc1cccc(-c2nc3nc(C(=O)O)nc(N4CCCC4C4CCCCC4)c3n2Cc2ccc(C(F)(F)F)cc2)c1 (stereo not shown) [Example 6.80, 6-(2-cyclohexylpyrrolidin-1-yl)-8-(3-methylphenyl)-7-[4-(trifluoromethyl)benzyl]-7H-purine-2-carboxylic acid] | – | 40
Cc1cccc(-c2nc3nc(C(=O)O)nc(N(C)C(C)C(C)C)c3n2Cc2ccc(C(F)(F)F)cc2)c1 (stereo not shown) [Example 6.81, 6-[(1,2-dimethylpropyl)(methyl)amino]-8-(3-methylphenyl)-7-[4-(trifluoromethyl)benzyl]-7H-purine-2-carboxylic acid] | – | 46
Cc1cccc(-c2nc3nc(C(=O)O)nc(N(C)CC(C)(C)C)c3n2Cc2ccc(C(F)(F)F)cc2)c1 [Example 6.82, 6-[(2,2-dimethylpropyl)(methyl)amino]-8-(3-methylphenyl)-7-[4-(trifluoromethyl)benzyl]-7H-purine-2-carboxylic acid] | 899 | –
CCCCN(C)c1nc(C(=O)O)nc2nc(-c3cccc(C)c3)n(Cc3ccc(C(F)(F)F)cc3)c12 [Example 6.83, 6-[butyl(methyl)amino]-8-(3-methylphenyl)-7-[4-(trifluoromethyl)benzyl]-7H-purine-2-carboxylic acid] | 834 | –

From patent EP2951180B1, “2,6,7,8 SUBSTITUTED PURINES AS HDM2 INHIBITORS” (Merck Sharp & Dohme Corp., priority 2013, dated 2014)
